The values that follow come from PubChem BioAssay AID2631 (Broad Institute, 2010).

The EC50 is the concentration at which the effect is half-maximal.

Results filed as inconclusive are left out. Active and inactive are the calls of the source.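 How the source made its calls: active means EC50 no more than tenfold above the top concentration tested; inconclusive means flat fit with effect between 30% and 70%, or unusable fit; inactive means EC50 beyond tenfold above the top dose.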

The assay has as its system BJeLR fibroblast viability, alamar blue fluorescence, 48 h. The assay can be described thus: growth inhibition of engineered Ras-driven BJ cells – cell-based, alamar blue fluorescence, cherrypicked samples, dose response (AID 2631).

For the compound `CCc1ccc(/C=C2/SC(=S)N(CCC(=O)NCCCN3CCOCC3)C2=O)cc1`, the EC50 was > 6.67 µM (inactive).
Then `CCc1ccc(/C=C2\SC(=S)N(CCC(=O)NCCCN3CCOCC3)C2=O)cc1`, with > 6.67 µM (inactive).
